According to PubChem BioAssay (NCI):
“And” between values parts separate entries of the source, which are not always exact repeats. Equal values may be shown once.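 Cells were grown in 96-well plates and exposed to each compound for 48 hours at five concentrations; endpoints were interpolated linearly between bracketing concentrations, or set to the highest concentration if not reached. GI50 marks 50% less growth. TGI is the concentration that stops growth completely.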

Columns and labels:
Assay in all cases: inhibition of tumour cell growth, NCI panel, 48 h
ACHN renal = tested on: ACHN renal
DU-145 prostate = tested on: DU-145 prostate
HT29 colon = tested on: HT29 colon
MDA-MB-231 breast = tested on: MDA-MB-231 breast
NCI-H460 lung = tested on: NCI-H460 lung
NCI/ADR-RES ovarian = tested on: NCI/ADR-RES ovarian
RPMI-8226 leukemia = tested on: RPMI-8226 leukemia
RXF 393 renal = tested on: RXF 393 renal
SF-268 CNS = tested on: SF-268 CNS
SK-MEL-28 melanoma = tested on: SK-MEL-28 melanoma

Structure (SMILES)	GI50 (ACHN renal)	TGI (ACHN renal)	GI50 (DU-145 prostate)	TGI (DU-145 prostate)	GI50 (HT29 colon)	TGI (HT29 colon)	GI50 (MDA-MB-231 breast)	TGI (MDA-MB-231 breast)	GI50 (NCI-H460 lung)	TGI (NCI-H460 lung)	GI50 (NCI/ADR-RES ovarian)	TGI (NCI/ADR-RES ovarian)	GI50 (RPMI-8226 leukemia)	TGI (RPMI-8226 leukemia)	GI50 (RXF 393 renal)	TGI (RXF 393 renal)	GI50 (SF-268 CNS)	TGI (SF-268 CNS)	GI50 (SK-MEL-28 melanoma)	TGI (SK-MEL-28 melanoma)
COc1cc(/C=C/C(=O)c2cccc(Nc3nc(Nc4ccccc4)nc(Nc4ccccc4)n3)c2)cc(OC)c1OC	24.1 µM	> 100 µM	5.91 µM	> 100 µM	6.41 µM	> 100 µM	11.7 µM	> 100 µM	2.05 µM	20.9 µM	3.82 µM	> 100 µM	0.53 µM	4.58 µM	1.6 µM	11.1 µM	13.8 µM	> 100 µM	4.02 µM	19.6 µM
COc1cc(C[C@H]2c3cc(OC)c(OC)cc3CCN2C)c(Oc2cc3c(cc2OC)-c2c(OC)c(OC)cc4c2[C@H](C3)N(C)CC4)cc1OC	14.5 µM	30 µM and 27.5 µM	–	39.6 µM	4.05 µM	17.4 µM and 14.6 µM	–	14.9 µM	14.1 µM	20.1 µM and 27.5 µM	–	32.3 µM	3.22 µM	25.5 µM and 15.4 µM	8.62 µM	7.35 µM and 21.3 µM	14.3 µM	31 µM and 28.4 µM	2.94 µM	9.03 µM and 8.73 µM
FC(F)(F)c1ccc(Nc2nc(-c3c(C(F)(F)F)nc4ccccn34)cs2)cc1	0.061 µM	6.83 µM	0.0402 µM	2.15 µM	0.0364 µM	1.99 µM	0.81 µM	6.93 µM	0.0353 µM	4.75 µM	0.035 µM	2.07 µM	0.0739 µM	6.01 µM	0.0389 µM	0.316 µM	0.0754 µM	10.7 µM	1.05 µM	16.9 µM
COC(=O)C1(C)CCC(c2ccc(C)cc2)=C(CC(=O)O)C1 (configuration not stated)	–	> 100 µM	–	> 100 µM	–	> 100 µM	–	> 100 µM	–	> 100 µM	–	> 100 µM	–	> 100 µM	–	> 100 µM	–	> 100 µM	–	> 100 µM
COc1c(C)c2c(c(O)c1C/C=C(\C)CCC(=O)O)C(=O)OC2	0.457 µM	> 100 µM	0.57 µM	> 100 µM	0.248 µM	> 100 µM	0.956 µM	> 100 µM	0.116 µM	> 100 µM	0.514 µM	> 100 µM	0.518 µM	> 100 µM	0.604 µM	> 100 µM	0.578 µM	> 100 µM	0.38 µM	> 100 µM
C=C1C(=O)O[C@H]2[C@H]1CC/C(COC(=O)NCc1cn(C)c3ccccc13)=C\CC[C@@]1(C)O[C@@H]21	0.533 µM	1.81 µM	1.26 µM	2.55 µM	1.22 µM	3 µM	1.68 µM	3.54 µM	2.77 µM	10.1 µM	2.37 µM	12.3 µM	0.696 µM	4.22 µM	1.26 µM	2.7 µM	1.84 µM	4.95 µM	1.43 µM	3.01 µM
COc1ccc(-c2nc(-c3nc4ccc(OC)cc4[nH]3)c3ccccn23)cc1	3.57 µM	36.6 µM	4.11 µM	> 100 µM	3.75 µM	> 100 µM	5.65 µM	> 100 µM	3.23 µM	14 µM	3.86 µM	57.7 µM	1.72 µM	5.57 µM	24.2 µM	> 100 µM	4.53 µM	64.3 µM	18.5 µM	> 100 µM
CCN(CC)CCCC(C)Nc1ccnc2cc(Oc3ccccc3)ccc12 (configuration not stated)	5.61 µM and 6.72 µM	26.2 µM and 29 µM	5.73 µM and 54.6 µM	22.4 µM and > 100 µM	0.627 µM and 1.12 µM	8.37 µM and 12 µM	2.05 µM and 3.47 µM	8.41 µM and 21.9 µM	9.21 µM and 12.6 µM	25.9 µM and 78.7 µM	14.3 µM and 38.4 µM	34.1 µM and > 100 µM	5.02 µM and 5.36 µM	13.9 µM and 28.2 µM	1.65 µM and 3.53 µM	5.82 µM and 11.2 µM	6.48 µM and 8.36 µM	19.9 µM and 92.4 µM	1.73 µM and 1.99 µM	3.22 µM and 3.65 µM
CN[C@@H](C)C(=O)N[C@H](C(=O)N1CCC[C@H]1C(=O)Nc1snnc1-c1ccccc1)C1CCCCC1	52.7 µM	> 100 µM	65.4 µM	> 100 µM	31.7 µM	> 67.3 µM	0.778 µM	21.4 µM	58.1 µM	> 100 µM	66.1 µM	> 100 µM	43.9 µM	> 100 µM	5.18 µM	40.1 µM	> 86.1 µM	> 100 µM	23 µM	61.6 µM
C=C(C)C(=O)Nc1ccc(NC(C)C)cc1	> 100 µM	> 100 µM	> 100 µM	> 100 µM	> 100 µM	> 100 µM	> 100 µM	> 100 µM	> 100 µM	> 100 µM	> 100 µM	> 100 µM	> 100 µM	> 100 µM	> 100 µM	> 100 µM	> 100 µM	> 100 µM	> 100 µM	> 100 µM
Cc1ccc(S(=O)(=O)N/N=C/c2c(O)ccc3ccccc23)cc1	–	> 100 µM	–	> 100 µM	–	> 100 µM	–	70.7 µM	–	> 100 µM	–	> 100 µM	–	> 100 µM	–	42.4 µM	–	> 100 µM	–	> 100 µM
O=[N+]([O-])O.[Cu+2].[NH-]CC[NH-].[NH-]CC[NH-]	> 10 µM	> 10 µM	> 10 µM	> 10 µM	> 10 µM	> 10 µM	> 10 µM	> 10 µM	> 10 µM	> 10 µM	> 10 µM	> 10 µM	> 10 µM	> 10 µM	> 10 µM	> 10 µM	> 10 µM	> 10 µM	> 10 µM	> 10 µM
COc1ccc(C(=O)OC2C(OC3C(O)COC(O[C@H]4C[C@H]5[C@@H]6CC=C7C[C@@H](O)CC[C@]7(C)[C@H]6CC[C@]5(C)[C@H]4[C@H](C)C(=O)CCC(C)C)C3OC(N)=O)OCC(O)C2O)cc1 (some centres not stated)	0.471 µM	5.53 µM	0.0285 µM	5.34 µM	0.0737 µM	4.27 µM	0.355 µM	4.58 µM	0.0142 µM	0.496 µM	13.9 µM	30 µM	< 0.003 µM	0.00997 µM	< 0.003 µM	0.0509 µM	0.0427 µM	1.49 µM	0.033 µM	0.137 µM
